Assay results published in PMC3605511, “Tumor P-Glycoprotein Correlates with Efficacy of PF-3758309 in in vitro and in vivo Models of Colorectal Cancer” (Frontiers in Pharmacology, 2013).

What was measured:
MDCKII-LE cells = experiment: MDCKII-LE permeability assay; format: in vitro ADME; conditions: MDCKII-LE; A → B <5 × 10^−6 cm/s low, 5–15 moderate, >15 high
Description: (§1) Permeability and transporter substrate assays were performed as previously published (Feng et al., [2008]; Callegari et al., [2011]; Di et al., [2011]). Permeability assays were conducted in MDCKII-LE cells, which were generated by isolation of a subpopulation of cells with low expression of endogenous P-gp (Feng et al., [2008]; Callegari et al., [2011]; Di et al., [2011]). The use of MDCKII-LE cells are used to measure the passive permeability of compounds in place of MDCK wild-type or Caco-2 cells since both MDCK wild-type and Caco-2 cells are known to have some level of endogenous transporter expression which can affect the permeability measurement. P-gp efflux was determined in MDR1-MDCK cells and BCRP efflux was measured in BCRP-MDCKII-LE cells.
(§2) MDCKII-LE, MDR1-MDCK, and BCRP-MDCKII-LE transwell assays were performed to determine the permeability and transporter efflux of PF-309 in vitro (Table 1). The permeability of PF-309 was determined to be 0.9 × 10^−6 cm/s in MDCKII-LE cells (mean of two replicates is presented). As previously described (Feng et al., [2008]), in MDCKII-LE cells a compound with a donor to receiver (A → B) flux of <5 × 10^−6 cm/s is classified as having low permeability. Compounds with A → B flux of 5–15 × 10^−6 cm/s are classified as moderately permeable and compounds >15 × 10^−6cm/s are considered to be highly permeable.

[1] = MDCKII-LE permeability assay; format: in vitro ADME; conditions: dog, MDCK; MDCKII-LE cells, mean of two replicates
Description: as §1, §2

[2] = End of study tumor and plasma concentrations (LC/MS/MS); format: in vivo; conditions: mice, trough (6–8 h)
[3] = Tumor concentration 6 h after a single dose, P-gp tumor concentration study; format: in vivo, mice; conditions: single dose 25 mg/kg, 6 h post treatment; SW480 and HCT15 vs GEO and HCT116 xenografts
Description: Plasma and tumor samples were collected 1 h post treatment at the end of therapeutic studies or 6 h post treatment for P-gp tumor concentration studies. PF-309 was measured in mouse plasma and tumor tissue using a validated LC/MS/MS assay carried out by the University of Colorado Cancer Center Pharmacology Shared Resource. Positive ion electrospray ionization (ESI) mass spectra were obtained with a 3200 QTrap triple quadrupole mass spectrometer (Applied Biosystems Inc., Foster City, CA, USA) with a turboionspray source interfaced to an Agilent 1200 Series binary HPLC system (Agilent Technologies Inc., Santa Clara, CA, USA), and a HTC-PAL auto-sampler (LEAP Technologies, Carrboro, NC, USA). […]
Finally, we determined if the presence of P-gp affects tumor concentration. We evaluated the tumor concentration in two tumor xenograft lines with high ABCB1 gene expression (SW480 and HCT15) and two tumor xenografts with low ABCB1 gene expression (GEO and HCT116). Tumors from animals treated with a single dose of 25 mg/kg PF-309 were collected 6 h post treatment and concentrations analyzed. […] Tumors were also analyzed by western blot to confirm the presence or absence of P-gp, which agreed with the gene expression data (Figure 7B).

permeability classification (MDCKII-LE cells): poorly permeable | Papp A→B [1]: 0.9 ×10⁻⁶ cm/s | total plasma concentrations at the trough [2]: 1 to 10 nM | tumor concentration, high tumor P-gp vs low ABCB1 expression [3]: ∼four fold lower
Structure (SMILES): Cc1nc(Nc2n[nH]c3c2CN(C(=O)N[C@H](CN(C)C)c2ccccc2)C3(C)C)c2sccc2n1 [PF-309]
